≈ marks a conversion by molar mass, not a printed value. Read-outs that look alike come from different tables or passages of the source.
How the values were obtained:
Test in all cases: in vitro antibacterial activity, agar dilution method (MIC)
Assay type in all cases: cell-based
Acinetobacter Sp = conditions: strain CMX 669, BHI agar, 20-24 hours
Procedure: (§1) The test medium was Brain Heart Infusion (BHI) agar. The antibacterial agent was dissolved at a concentration of 2,000 ug/mL. Test plates were then prepared, usually 12 two-fold dilutions. After adding the sample to the plates, 10 mL of cooled BHI agar medium was added to each plate. The organisms were grown overnight in BHI broth (Difco) in a 35°-37° C. incubator.
(§2) On the day of testing, the bacterial suspensions were diluted 1:100 in sterile distilled water, except for a few slow-growing organisms (usually Micrococcus and Streptococcus) which were diluted 1:10. The plate was then inoculated with approximately 10^4 organisms. This was incubated in a 35°-37° C. incubator for 20-24 hours. Thereafter, the plates were read to determine the minimum inhibitory concentration (MIC) defined as the lowest concentration of drug yielding no growth on the plate, a slight haze, or sparsely isolated colonies on the inoculum spot as compared to the growth control.

Enterobacter Aerogenes = conditions: BHI agar, 20-24 hours
Procedure: as §1, §2

Enterococcus Faecium = conditions: BHI agar, 20-24 hours
Procedure: as §1, §2

Haemophilus Influenzae = conditions: BHI agar, 20-24 hours
Procedure: as §1, §2

Klebsiella Pneumoniae = conditions: BHI agar, 20-24 hours
Procedure: as §1, §2

Micrococcus Luteus = system: Micrococcus Luteus
Procedure: as §1, §2

Providencia Stuartii = conditions: strain CMX 640, BHI agar, 20-24 hours
Procedure: as §1, §2

Pseudomonas Aeruginosa = conditions: BHI agar, 20-24 hours
Procedure: as §1, §2

Staphylococcus Aureus = conditions: BHI agar, 20-24 hours
Procedure: as §1, §2

[1] = system: Staphylococcus Epidermidis; conditions: strain 3519, BHI agar, 20-24 hours
Procedure: as §1, §2

Streptococcus Agalactiae = conditions: strain CMX 508, BHI agar, 20-24 hours
Procedure: as §1, §2

Streptococcus Bovis = conditions: Streptococcus equinus
Procedure: as §1, §2

Streptococcus Pyogenes = conditions: BHI agar, 20-24 hours
Procedure: as §1, §2

Escherichia Coli = conditions: BHI agar, 20-24 hours
Procedure: as §1, with “Compounds 1 to 8 were evaluated for antibacterial activity by the agar dilution method to determine the degree of in vitro susceptibility of aerobic microorganisms to antimicrobial agents. The test” for “The test”
as §2

Pseudomonas Cepacia = conditions: strain 296I, BHI agar, 20-24 hours
Procedure: as §1, with “Compounds 1 to 8 were evaluated for antibacterial activity by the agar dilution method to determine the degree of in vitro susceptibility of aerobic microorganisms to antimicrobial agents. The test” for “The test”
as §2

[2] = Haemophilus influenzae, strain 519A, read-out: MIC
[3] = Haemophilus influenzae, strain 751, read-out: MIC
[4] = Haemophilus influenzae, strain 1435, read-out: MIC

CCC1OC(=O)CC(O)C(C)C(OC2OC(C)CC(N(C)C)C2O)C(CC=O)CC(C)C(N(C)C)CCC2(C)OC2C1C (stereo not shown) [Example 3, [9S]-9-Deoxo-10,11-dihydro-9-N,N-dimethylamino-rosaramicin]
MIC (Acinetobacter Sp): 3.1 µg/mL (≈ 5.06 µM)
MIC (Enterobacter Aerogenes; strain ATCC 13048): 12.5 µg/mL (≈ 20.4 µM)
MIC (Enterococcus Faecium; strain ATCC 8043): 0.78 µg/mL (≈ 1.27 µM)
MIC (Haemophilus Influenzae; [2]): 0.25 µg/mL (≈ 0.408 µM)
MIC (Haemophilus Influenzae; [3]): 4 µg/mL (≈ 6.53 µM)
MIC (Haemophilus Influenzae; [4]): 0.5 µg/mL (≈ 0.816 µM)
MIC (Haemophilus Influenzae; Haemophilus influenzae, strain DILL AMP R, read-out: MIC): 0.5 µg/mL (≈ 0.816 µM)
MIC (Haemophilus Influenzae; strain 503B): 0.5 µg/mL (≈ 0.816 µM)
MIC (Haemophilus Influenzae; strain 504): 0.5 µg/mL (≈ 0.816 µM)
MIC (Haemophilus Influenzae; strain 566A): 1 µg/mL (≈ 1.63 µM)
MIC (Haemophilus Influenzae; strain 588A): 1 µg/mL (≈ 1.63 µM)
MIC (Haemophilus Influenzae; strain 632A): 1 µg/mL (≈ 1.63 µM)
MIC (Haemophilus Influenzae; strain 667A): 0.5 µg/mL (≈ 0.816 µM)
MIC (Haemophilus Influenzae; strain 747C): 1 µg/mL (≈ 1.63 µM)
MIC (Haemophilus Influenzae; strain 1177): 0.12 µg/mL (≈ 0.196 µM)
MIC (Haemophilus Influenzae; strain ATCC 9795): 1 µg/mL (≈ 1.63 µM)
MIC (Haemophilus Influenzae; strain ATCC 10211): 0.5 µg/mL (≈ 0.816 µM)
MIC (Haemophilus Influenzae; strain ATCC 19418): 1 µg/mL (≈ 1.63 µM)
MIC (Haemophilus Influenzae; strain ATCC 43095): 1 µg/mL (≈ 1.63 µM)
MIC (Haemophilus Influenzae; strain SOL AMP R): 1 µg/mL (≈ 1.63 µM)
MIC (Haemophilus Influenzae; strain SPK AMP R): 0.25 µg/mL (≈ 0.408 µM)
MIC (Klebsiella Pneumoniae; strain ATCC 8045): 6.2 µg/mL (≈ 10.1 µM)
MIC (Micrococcus Luteus; Micrococcus luteus, ATCC9341): 0.2 µg/mL (≈ 0.326 µM)
MIC (Micrococcus Luteus; strain ATCC 4698, BHI agar, 20-24 hours): 0.39 µg/mL (≈ 0.636 µM)
MIC (Providencia Stuartii): > 100 µg/mL
MIC (Pseudomonas Aeruginosa; strain A5007): > 100 µg/mL
MIC (Pseudomonas Aeruginosa; strain BMH10): 100 µg/mL (≈ 163 µM)
MIC (Pseudomonas Aeruginosa; strain K799/61): 0.78 µg/mL (≈ 1.27 µM)
MIC (Pseudomonas Aeruginosa; strain K799/WT): 100 µg/mL (≈ 163 µM)
MIC (Staphylococcus Aureus; strain 45): 0.78 µg/mL (≈ 1.27 µM)
MIC (Staphylococcus Aureus; strain 45 RAR2): 1.56 µg/mL (≈ 2.55 µM)
MIC (Staphylococcus Aureus; strain 642A): 1.56 µg/mL (≈ 2.55 µM)
MIC (Staphylococcus Aureus; strain A5177): 0.78 µg/mL (≈ 1.27 µM)
MIC (Staphylococcus Aureus; strain ATCC 6538P): 1.56 µg/mL (≈ 2.55 µM)
MIC (Staphylococcus Aureus; strain CMX 553): 1.56 µg/mL (≈ 2.55 µM)
MIC (Staphylococcus Aureus; strain NCTC 10649): 0.78 µg/mL (≈ 1.27 µM)
MIC [1]: 1.56 µg/mL (≈ 2.55 µM)
MIC (Streptococcus Agalactiae): 0.2 µg/mL (≈ 0.326 µM)
MIC (Streptococcus Bovis; strain A5169, BHI agar, 20-24 hours): 0.05 µg/mL (≈ 0.0816 µM)
MIC (Streptococcus Pyogenes; strain 930 CONST): > 100 µg/mL
MIC (Streptococcus Pyogenes; strain 2548 INDUC): 0.78 µg/mL (≈ 1.27 µM)
MIC (Streptococcus Pyogenes; strain EES61): 0.1 µg/mL (≈ 0.163 µM)
MIC (Escherichia Coli; strain DC-2): 6.2 µg/mL (≈ 10.1 µM)
MIC (Escherichia Coli; strain SS): 0.1 µg/mL (≈ 0.163 µM)
MIC (Pseudomonas Cepacia): > 100 µg/mL

CCC1OC(=O)CC(O)C(C)C(OC2OC(C)C(O)C(N(C)C)C2O)C(CC=O)CC(C)C(N(C)C)C=CC(C)=CC1COC(C)=O (stereo not shown) [Example 4, [9R]-23-O-Acetyl-9-deoxo-9-N,N-dimethylamino-5-O-mycaminosyl-tylonide]
MIC (Acinetobacter Sp; Acinetobacter, read-out: MIC): 6.2 µg/mL (≈ 9.27 µM)
MIC (Enterobacter Aerogenes; Klebsiella aerogenes, ATCC13048, strain ATCC 13048, read-out: MIC): 100 µg/mL (≈ 150 µM)
MIC (Enterococcus Faecium; Enterococcus faecium, ATCC8043, strain ATCC 8043, read-out: MIC): 0.39 µg/mL (≈ 0.583 µM)
MIC (Haemophilus Influenzae; Haemophilus influenzae, ATCC9795, strain ATCC 9795, read-out: MIC): 1 µg/mL (≈ 1.5 µM)
MIC (Haemophilus Influenzae; Haemophilus influenzae, ATCC10211, strain ATCC 10211): 2 µg/mL (≈ 2.99 µM)
MIC (Haemophilus Influenzae; Haemophilus influenzae, ATCC19418, strain ATCC 19418): 2 µg/mL (≈ 2.99 µM)
MIC (Haemophilus Influenzae; Haemophilus influenzae, ATCC43095, strain ATCC 43095): 2 µg/mL (≈ 2.99 µM)
MIC (Haemophilus Influenzae; Haemophilus influenzae, strain 503B): 2 µg/mL (≈ 2.99 µM)
MIC (Haemophilus Influenzae; Haemophilus influenzae, strain 504, read-out: MIC): 0.25 µg/mL (≈ 0.374 µM)
MIC (Haemophilus Influenzae; [2]): 1 µg/mL (≈ 1.5 µM)
MIC (Haemophilus Influenzae; Haemophilus influenzae, strain 566A, read-out: MIC): 1 µg/mL (≈ 1.5 µM)
MIC (Haemophilus Influenzae; Haemophilus influenzae, strain 588A): 2 µg/mL (≈ 2.99 µM)
MIC (Haemophilus Influenzae; Haemophilus influenzae, strain 747C): 2 µg/mL (≈ 2.99 µM)
MIC (Haemophilus Influenzae; [3]): 8 µg/mL (≈ 12 µM)
MIC (Haemophilus Influenzae; Haemophilus influenzae, strain 1177, read-out: MIC): 0.25 µg/mL (≈ 0.374 µM)
MIC (Haemophilus Influenzae; [4]): 1 µg/mL (≈ 1.5 µM)
MIC (Haemophilus Influenzae; Haemophilus influenzae, strain DILL AMP R): 2 µg/mL (≈ 2.99 µM)
MIC (Haemophilus Influenzae; Haemophilus influenzae, strain SOL AMP R): 2 µg/mL (≈ 2.99 µM)
MIC (Haemophilus Influenzae; Haemophilus influenzae, strain SPK AMP R): 2 µg/mL (≈ 2.99 µM)
MIC (Klebsiella Pneumoniae; Klebsiella pneumoniae, ATCC8045, strain ATCC 8045, read-out: MIC): 50 µg/mL (≈ 74.8 µM)
MIC (Micrococcus Luteus; Micrococcus luteus, ATCC4698, strain ATCC 4698, BHI agar, 20-24 hours, read-out: MIC): 0.39 µg/mL (≈ 0.583 µM)
MIC (Micrococcus Luteus; Micrococcus luteus, ATCC9341, strain ATCC 9341, BHI agar, 20-24 hours, read-out: MIC): 0.2 µg/mL (≈ 0.299 µM)
MIC (Providencia Stuartii; Providencia stuartii, read-out: MIC): > 100 µg/mL
MIC (Pseudomonas Aeruginosa; Pseudomonas aeruginosa, strain A5007, read-out: MIC): 100 µg/mL (≈ 150 µM)
MIC (Pseudomonas Aeruginosa; Pseudomonas aeruginosa, strain BMH10, read-out: MIC): 100 µg/mL (≈ 150 µM)
MIC (Pseudomonas Aeruginosa; Pseudomonas aeruginosa, strain K799/61, read-out: MIC): 3.1 µg/mL (≈ 4.63 µM)
MIC (Pseudomonas Aeruginosa; Pseudomonas aeruginosa, strain K799/WT, read-out: MIC): 100 µg/mL (≈ 150 µM)
MIC (Staphylococcus Aureus; Staphylococcus aureus, ATCC6538P, strain ATCC 6538P, read-out: MIC): 0.78 µg/mL (≈ 1.17 µM)
MIC (Staphylococcus Aureus; Staphylococcus aureus, NCTC10649, strain NCTC 10649, read-out: MIC): 0.78 µg/mL (≈ 1.17 µM)
MIC (Staphylococcus Aureus; Staphylococcus aureus, strain 45, read-out: MIC): 0.78 µg/mL (≈ 1.17 µM)
MIC (Staphylococcus Aureus; Staphylococcus aureus, strain 45 RAR2, read-out: MIC): 1.56 µg/mL (≈ 2.33 µM)
MIC (Staphylococcus Aureus; Staphylococcus aureus, strain 642A, read-out: MIC): 1.56 µg/mL (≈ 2.33 µM)
MIC (Staphylococcus Aureus; Staphylococcus aureus, strain A5177, read-out: MIC): 0.78 µg/mL (≈ 1.17 µM)
MIC (Staphylococcus Aureus; Staphylococcus aureus, strain CMX 553, read-out: MIC): 1.56 µg/mL (≈ 2.33 µM)
MIC ([1]; Staphylococcus epidermidis, read-out: MIC): 0.78 µg/mL (≈ 1.17 µM)
MIC (Streptococcus Agalactiae; Streptococcus agalactiae, read-out: MIC): 0.1 µg/mL (≈ 0.15 µM)
MIC (Streptococcus Bovis): ≤ 0.02 µg/mL
MIC (Streptococcus Pyogenes; Streptococcus pyogenes, strain 930 CONST, read-out: MIC): > 100 µg/mL
MIC (Streptococcus Pyogenes; Streptococcus pyogenes, strain 2548 INDUC, read-out: MIC): 0.78 µg/mL (≈ 1.17 µM)
MIC (Streptococcus Pyogenes; Streptococcus pyogenes, strain EES61, read-out: MIC): 0.1 µg/mL (≈ 0.15 µM)
MIC (Escherichia Coli; Escherichia coli, strain DC-2, read-out: MIC): 25 µg/mL (≈ 37.4 µM)
MIC (Escherichia Coli; Escherichia coli, strain H560, read-out: MIC): 12.5 µg/mL (≈ 18.7 µM)
MIC (Escherichia Coli; Escherichia coli, strain JUHL, read-out: MIC): 50 µg/mL (≈ 74.8 µM)
MIC (Escherichia Coli; Escherichia coli, strain KNK 437, read-out: MIC): 50 µg/mL (≈ 74.8 µM)
MIC (Escherichia Coli; Escherichia coli, strain SS, read-out: MIC): 0.78 µg/mL (≈ 1.17 µM)
MIC (Pseudomonas Cepacia; Burkholderia cepacia, read-out: MIC): > 100 µg/mL

Reference: patent publication US5140014A (Abbott Laboratories, priority 1989, dated 1992)
